According to US4280001A, “Biologically pure culture” (priority 1976, dated 1981):
Bridge positions count the residues as written; N and C are the ends. Square brackets hold non-standard residues; d marks the D form. Peptide text beside a SMILES is read from it. * marks the point of attachment. Ileψ(thiazoline)Cys = CC[C@H](C)[C@H](N)C1=N[C@H](C(=O)*)CS1; dOrn = NCCC[C@@H](N)C(=O)O

Experiments:
Format in all cases: cell-based
[1] = tested on: Staphylococcus aureus ATCC 6538 resistant to penicillin; assay: microbe, parasite or virus in culture; details: ATCC6538
Description: (§1) The new antibiotic substance is active also against microorganism strains which are resistant to other commonly used antibiotics.

[2] = tested on: Staphylococcus aureus ATCC 6538 resistant to erythromycin; assay: microbe, parasite or virus in culture; details: ATCC6538
Description: as §1

[3] = tested on: Staphylococcus aureus ATCC 6538 resistant to neomycin; assay: MIC against resistant Staphylococcus aureus strains (Table III); details: S. aureus ATCC 6538 resistant to neomycin
Description: as §1

[4] = tested on: Staphylococcus aureus ATCC 6538 resistant to lincomycin; assay: microbe, parasite or virus in culture; details: ATCC6538
Description: as §1

[5] = tested on: Staphylococcus aureus Tour resistant to streptomycin; assay: MIC against resistant Staphylococcus aureus strains (Table III); details: S. aureus Tour resistant to streptomycin
Description: as §1

[6] = tested on: Staphylococcus aureus ATCC 6538 resistant to rifampicin; assay: as above; details: ATCC6538
Description: as §1

[7] = tested on: Staphylococcus aureus ATCC 6538 resistant to cephaloridine; assay: microbe, parasite or virus in culture; details: ATCC6538
Description: as §1

[8] = tested on: Staphylococcus aureus ATCC 6538 resistant to chloramphenicol; assay: microbe, parasite or virus in culture; details: ATCC6538
Description: as §1

[9] = tested on: Staphylococcus aureus ATCC 6538 resistant to tetracycline; assay: MIC against resistant Staphylococcus aureus strains (Table III); details: ATCC6538
Description: as §1

[10] = tested on: Staphylococcus aureus ATCC 6538 resistant to bacitracin; assay: microbe, parasite or virus in culture; details: ATCC6538
Description: as §1

[11] = tested on: Staphylococcus aureus ATCC 6538 resistant to kanamycin; assay: MIC against resistant Staphylococcus aureus strains (Table III); details: ATCC6538
Description: as §1

CC1(C)S[C@@H]2[C@H](NC(=O)Cc3ccccc3)C(=O)N2[C@H]1C(=O)O [penicillin]
MIC [1]: > 100 mg/L

CC[C@H]1OC(=O)[C@H](C)[C@@H](O[C@H]2C[C@@](C)(OC)[C@@H](O)[C@H](C)O2)[C@H](C)[C@@H](O[C@@H]2O[C@H](C)C[C@H](N(C)C)[C@H]2O)[C@](C)(O)C[C@@H](C)C(=O)[C@H](C)[C@@H](O)[C@]1(C)O [erythromycin]
MIC [2]: > 100 mg/L

neomycin
MIC [3]: > 100 mg/L

CCC[C@@H]1C[C@@H](C(=O)N[C@@H]([C@H]2O[C@H](SC)[C@H](O)[C@@H](O)[C@H]2O)[C@@H](C)O)N(C)C1 [lincomycin]
MIC [4]: > 100 mg/L

[H]/N=C(/N)N[C@H]1[C@H](O)[C@@H](O)[C@H](O[C@@H]2O[C@@H](C)[C@](O)(C=O)[C@H]2O[C@@H]2O[C@@H](CO)[C@H](O)[C@@H](O)[C@@H]2NC)[C@@H](N/C(N)=N\[H])[C@@H]1O [streptomycin]
MIC [5]: > 100 mg/L

CO[C@H]1/C=C/O[C@@]2(C)Oc3c(C)c(O)c4c(O)c(c(/C=N/N5CCN(C)CC5)c(O)c4c3C2=O)NC(=O)/C(C)=C\C=C\[C@H](C)[C@H](O)[C@@H](C)[C@@H](O)[C@@H](C)[C@H](OC(C)=O)[C@@H]1C [rifampicin]
MIC [6]: > 100 mg/L

O=C(Cc1cccs1)N[C@@H]1C(=O)N2C(C(=O)[O-])=C(C[n+]3ccccc3)CS[C@H]12 [cephaloridine]
MIC [7]: > 100 mg/L

O=C(N[C@H](CO)[C@H](O)c1ccc([N+](=O)[O-])cc1)C(Cl)Cl [chloramphenicol]
MIC [8]: > 100 mg/L

CN(C)C1C(=O)C(C(N)=O)=C(O)C2(O)C(=O)C3=C(O)c4c(O)cccc4C(C)(O)C3CC12 (centres unmarked) [tetracycline]
MIC [9]: > 100 mg/L

CC[C@H](C)[C@H](N)C1=N[C@H](C(=O)N[C@@H](CC(C)C)C(=O)N[C@H](CCC(=O)O)C(=O)N[C@H](C(=O)N[C@H]2CCCCNC(=O)[C@H](CC(N)=O)NC(=O)[C@@H](CC(=O)O)NC(=O)[C@H](Cc3cnc[nH]3)NC(=O)[C@@H](Cc3ccccc3)NC(=O)[C@H]([C@@H](C)CC)NC(=O)[C@@H](CCCN)NC2=O)[C@@H](C)CC)CS1 [bacitracin] ({Ileψ(thiazoline)Cys}-L[dE]IK[dOrn]I[dF]H[dD]N; lactam 4-C)
MIC [10]: > 100 mg/L

NC[C@H]1O[C@H](O[C@H]2[C@H](O)[C@@H](O[C@H]3O[C@H](CO)[C@@H](O)[C@H](N)[C@H]3O)[C@H](N)C[C@@H]2N)[C@H](O)[C@@H](O)[C@@H]1O [kanamycin]
MIC [11]: > 100 mg/L
